Test [1] has as its system human colon cancer cell SW620. Put plainly: MTT assay, growth of SW620 cells, compounds combined with CPT-11. The settings on record: 205 nM CPT-11, 5 days, MTT. The test is classed as cell-based. The protocol:
(§1) SW620 cells were digested by trypsinase, centrifuged at 800 rpm for 5 minutes, the supernatant was discarded, resuspended with fresh medium (RPMI 1640 medium+10% FBS) and counted. The cells were seeded into 96-well cell culture plate with appropriate cell density and incubated overnight in a 37° C. 5% CO2 incubator. The stock solutions of the tested compound and the reference compound AZD0156 were serially diluted to 8 concentrations by DMSO at the ratios of 1:3 and 1:10, respectively, and the last concentration was negative control of DMSO (0 μM, the final concentration of DMSO was 1%). 5 μL of each concentration was added to 120 μL of medium (25 times diluted) and mixed by shaking. The overnight cells were taken and the culture medium was removed, 195 μL of fresh medium containing 205 nM CPT-11 was added to each well, and 5 μL of diluted medium containing the corresponding concentration of the tested sample was added respectively, and the culture plate was then placed in the 5% CO2 cell culture incubator at 37° C. for 5 days. After removing the original solution, 100 μL of fresh serum-free DMEM medium containing MTT (0.5 mg/mL) was added to each well, the culture was continued. After 4 hours, the original solution was removed, 100 μL of DMSO was added into each well, the 96-well plates were shaken away from light for 10 minutes and placed in a multi-function reader to read the absorbance at the wavelength of 552/630/690 nm. GraphPad Prism 6.0 was used to analyze the data. The inhibitory activity of compounds on cell proliferation was plotted based on cell viability and compound concentration. The IC50 value was fitted by a sigmoidal dose response curve equation Y=100/(1+10^(Log C−Log IC50)), where C was the concentration of compound.
(Tetrazolium assays rely on reduction of a dye to a coloured formazan, in cell work by metabolically active cells.)

For test [2], the target named is ATM enzyme (human) (Homo sapiens, UniProt Q13315). Put plainly: ATM kinase assay (HTRF, phosphorylation of GST-cMyc-p53). The test is classed as biochemical. Conditions: for inhibition(%) of ATM kinase / inhibition at 1 µM: detected concentration 1 μm. The method, then: ATM enzyme (human) was added to the reaction solution containing 30 nM GST-cMyc-p53 and 10 μM Mg/ATP, and then 50 times the concentration of the tested compound (or reference compound AZD0156) dissolved in 100% DMSO was added to the final concentration of 10 μM/1 μM/0.1 μM/0.01 μM. The reaction was initiated by the addition of a Mg/ATP mixture and incubation for 30 minutes at room temperature, the reaction was quenched by the addition of a stop solution containing EDTA. Finally, the detection buffer containing the d2-labeled anti-GST monoclonal antibody and the europium-labeled anti-phospho p53 (Ser15) antibody was added. The plate was then read in time resolved fluorescence mode and the homogeneous time resolved fluorescence (HTRF) signal was determined according to the equation: HTRF=10000×(Em665nm/Em620nm). Each compound sample was repeated in duplicate. The negative control contained all components except the ATM enzyme, and the positive control contained all components. All reactions were quenched by adding EDTA.
The compounds were serially diluted to 10 concentrations with 100% DMSO at the ratio of 1:3 and 1:10 (the last concentration was negative control of DMSO), then added to the ATM buffer and diluted to a final concentration of 10, 3, 1, 0.3, 0.1, 0.03, 0.01, 0.003, 0.001 and 0 μM, respectively. ATM kinase inhibition was detected by using the method described above. The curve equation for calculating IC50 value is as follows: […]
wherein, C is the concentration of compound and D is the slope factor. Table 2 summarizes the IC50 values of compounds inhibiting ATM kinase.

For test [3], the system named is human breast cancer cell MDA-MB-468. Put plainly: MTT assay, growth of MDA-MB-468 cells. The test is classed as cell-based. Conditions: single agent, 7 days, MTT. The protocol:
as §1, with “MDA-MB-468 cells” for “SW620 cells”, “1:10, respectively:” for “1:10, respectively, and”, “medium (PRMI 1640+5% FBS)” for “medium containing 205 nM CPT-11”, “for 7 days (On the fourth day, the medium containing drugs was removed and fresh medium containing drugs was added for continuous cultivation).” for “for 5 days.”

[4] abbreviates: Homo sapiens, MDA-MB-468, 168 h.

Where only a bound is given, the exact number is not on record here.

Sequence of ATM enzyme (human) (Q13315 whole entry): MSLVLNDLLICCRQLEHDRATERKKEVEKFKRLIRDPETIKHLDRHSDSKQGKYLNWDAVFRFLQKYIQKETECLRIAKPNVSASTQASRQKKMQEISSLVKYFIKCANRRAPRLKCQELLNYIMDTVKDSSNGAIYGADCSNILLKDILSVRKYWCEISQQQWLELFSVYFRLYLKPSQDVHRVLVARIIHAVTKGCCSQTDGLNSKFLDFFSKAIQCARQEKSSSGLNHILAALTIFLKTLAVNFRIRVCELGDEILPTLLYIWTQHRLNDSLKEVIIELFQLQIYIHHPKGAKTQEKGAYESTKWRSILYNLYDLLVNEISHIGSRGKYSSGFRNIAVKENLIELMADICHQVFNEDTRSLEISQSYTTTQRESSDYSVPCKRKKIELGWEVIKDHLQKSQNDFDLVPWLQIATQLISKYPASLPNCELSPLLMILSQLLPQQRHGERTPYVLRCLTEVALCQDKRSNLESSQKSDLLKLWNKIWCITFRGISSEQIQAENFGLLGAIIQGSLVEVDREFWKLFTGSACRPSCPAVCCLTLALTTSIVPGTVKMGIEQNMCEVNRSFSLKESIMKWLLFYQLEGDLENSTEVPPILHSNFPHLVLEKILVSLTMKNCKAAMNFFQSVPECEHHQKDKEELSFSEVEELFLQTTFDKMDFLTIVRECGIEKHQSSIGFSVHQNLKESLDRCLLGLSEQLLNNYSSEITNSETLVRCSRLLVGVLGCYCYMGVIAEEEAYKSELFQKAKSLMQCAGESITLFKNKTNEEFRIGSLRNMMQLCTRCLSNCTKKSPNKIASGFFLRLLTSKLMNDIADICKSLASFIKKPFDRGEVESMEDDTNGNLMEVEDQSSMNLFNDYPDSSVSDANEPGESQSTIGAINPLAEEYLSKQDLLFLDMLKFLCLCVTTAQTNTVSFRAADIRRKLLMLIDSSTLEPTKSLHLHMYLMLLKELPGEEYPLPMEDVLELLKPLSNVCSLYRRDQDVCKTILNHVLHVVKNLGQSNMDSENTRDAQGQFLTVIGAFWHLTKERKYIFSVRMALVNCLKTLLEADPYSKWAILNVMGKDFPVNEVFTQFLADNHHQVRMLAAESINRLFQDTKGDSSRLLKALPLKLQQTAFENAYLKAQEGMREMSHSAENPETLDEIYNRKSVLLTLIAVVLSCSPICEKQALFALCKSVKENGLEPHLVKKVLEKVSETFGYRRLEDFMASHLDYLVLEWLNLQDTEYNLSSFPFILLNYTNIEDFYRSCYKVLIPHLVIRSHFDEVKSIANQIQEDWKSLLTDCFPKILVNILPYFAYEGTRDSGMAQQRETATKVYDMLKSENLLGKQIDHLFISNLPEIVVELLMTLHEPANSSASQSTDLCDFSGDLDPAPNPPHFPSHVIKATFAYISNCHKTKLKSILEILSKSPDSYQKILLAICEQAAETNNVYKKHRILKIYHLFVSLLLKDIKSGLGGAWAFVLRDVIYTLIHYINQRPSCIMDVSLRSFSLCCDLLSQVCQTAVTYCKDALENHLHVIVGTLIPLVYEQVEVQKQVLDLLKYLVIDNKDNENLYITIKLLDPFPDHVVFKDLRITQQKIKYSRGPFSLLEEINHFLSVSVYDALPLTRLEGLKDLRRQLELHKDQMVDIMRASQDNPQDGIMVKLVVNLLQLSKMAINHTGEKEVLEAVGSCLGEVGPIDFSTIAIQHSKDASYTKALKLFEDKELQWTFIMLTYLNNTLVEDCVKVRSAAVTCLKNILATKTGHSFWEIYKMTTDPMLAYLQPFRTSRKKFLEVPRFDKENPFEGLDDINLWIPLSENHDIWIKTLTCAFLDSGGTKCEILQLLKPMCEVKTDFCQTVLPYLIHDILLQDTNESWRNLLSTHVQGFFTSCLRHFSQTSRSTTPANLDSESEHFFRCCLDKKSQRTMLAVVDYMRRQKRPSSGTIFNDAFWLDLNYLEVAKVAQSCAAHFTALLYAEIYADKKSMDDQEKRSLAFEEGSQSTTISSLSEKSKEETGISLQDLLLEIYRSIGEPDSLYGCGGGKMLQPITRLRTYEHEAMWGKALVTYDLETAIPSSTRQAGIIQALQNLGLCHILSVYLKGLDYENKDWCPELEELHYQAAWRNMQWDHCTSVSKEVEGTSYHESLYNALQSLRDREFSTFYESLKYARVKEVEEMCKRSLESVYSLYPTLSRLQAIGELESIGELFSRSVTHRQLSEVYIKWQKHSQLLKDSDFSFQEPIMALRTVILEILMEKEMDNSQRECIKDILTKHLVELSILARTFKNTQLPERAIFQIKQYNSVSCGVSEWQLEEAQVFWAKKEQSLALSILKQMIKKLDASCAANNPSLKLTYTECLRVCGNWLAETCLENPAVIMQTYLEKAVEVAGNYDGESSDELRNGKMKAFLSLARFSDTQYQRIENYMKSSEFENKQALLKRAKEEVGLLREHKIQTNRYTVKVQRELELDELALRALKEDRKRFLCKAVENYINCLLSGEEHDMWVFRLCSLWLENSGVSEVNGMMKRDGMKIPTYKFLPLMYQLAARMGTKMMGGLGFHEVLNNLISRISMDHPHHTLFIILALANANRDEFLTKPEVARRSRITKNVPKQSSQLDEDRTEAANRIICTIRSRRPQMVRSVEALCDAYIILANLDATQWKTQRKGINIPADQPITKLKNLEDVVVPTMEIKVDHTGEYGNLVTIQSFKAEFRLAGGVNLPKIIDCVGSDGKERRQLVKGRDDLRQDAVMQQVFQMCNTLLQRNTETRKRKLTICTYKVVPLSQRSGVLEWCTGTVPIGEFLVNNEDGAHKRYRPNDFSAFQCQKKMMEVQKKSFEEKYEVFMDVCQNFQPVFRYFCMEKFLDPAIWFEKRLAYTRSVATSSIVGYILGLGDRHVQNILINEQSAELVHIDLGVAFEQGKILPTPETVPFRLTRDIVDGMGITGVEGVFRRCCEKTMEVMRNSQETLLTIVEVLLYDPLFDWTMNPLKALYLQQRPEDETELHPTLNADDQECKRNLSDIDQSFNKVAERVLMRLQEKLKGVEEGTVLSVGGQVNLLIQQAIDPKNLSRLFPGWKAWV

The IC50 is the concentration that inhibits the measured activity by half. For `CN(C)CCCOc1ccc(-c2ccc3ncc4c(c3c2)n(C2CCOCC2)c(=O)n4C)cn1` [AZD0156, reference compound], the concentration for half-maximal inhibition (IC50) stood at 0.0085 µM in test [1] and 0.0106 µM in test [3]. In addition, the “inhibition(%) of ATM kinase” value in test [2] is listed as 100%.
One may read the inhibition as the change of the read-out against control, counted positive when it falls. Low values mean a weak effect, high ones a strong effect. Take `CN(C)CCCOc1ccc(-c2ccc3nc4cccc(C5=CCOCC5)c4n3c2)cc1` [Example 2, N,N-dimethyl-3-(4-(9-(3,6-dihydro-2H-pyran-4-yl)benzo[4,5]imidazo[1,2-a]pyridin-2-yl)phenoxy)propan-1-amine]: in test [1] (Homo sapiens, SW-620, 120 h), the IC50 was 1.67 µM. Besides, 1 µM produced 81% inhibition in test [2] (0.5 h).
As to `CN(C)CCCOc1ccc(-c2ccc3nc4cccc(N5CCN(C)CC5)c4n3c2)cc1` [Example 3, N,N-dimethyl-3-(4-(9-(4-methylpiperazin-1-yl)benzo[4,5]imidazo[1,2-a]pyridin-2-yl)phenoxy)propan-1-amine], the half-inhibitory concentration (IC50) in test [1] (Homo sapiens, SW-620, 120 h) came to 0.563 µM; in test [3] (setting [4]), 0.33 µM.
`CN(C)CCCOc1ccc(-c2ccc3nc4cccc(N5CCOCC5)c4n3c2)cc1` [Example 4, N,N-dimethyl-3-(4-(9-morpholinobenzo[4,5]imidazo[1,2-a]pyridin-2-yl)phenoxy)propan-1-amine]: the IC50 in test [1] (Homo sapiens, SW-620, 120 h) was determined as 5.48 µM. Moreover, in test [2] (0.5 h), the inhibition at 1 µM stood at 74%.
For the compound `CN(C)CCCOc1ccc(-c2ccc3nc4cccc(N5CCCCC5)c4n3c2)cn1` [Example 5, N,N-dimethyl-3-((5-(9-(piperidin-1-yl)benzo[4,5]imidazo[1,2-a]pyridin-2-yl)pyridin-2-yl)oxy)propan-1-amine], in test [1] (Homo sapiens, SW-620, 120 h), the half-inhibitory concentration (IC50) is > 10 µM. In test [2] (0.5 h), the inhibition at 1 µM came to 61%.
As for `CN(C)CCCOc1ccc(-c2ccc3nc4cccc(N5CCOCC5)c4n3c2)cn1` [Example 6, N,N-dimethyl-3-((5-(9-morpholinobenzo[4,5]imidazo[1,2-a]pyridin-2-yl)pyridin-2-yl)oxy)propan-1-amine], the half-maximal inhibitory concentration (IC50) in test [1] (Homo sapiens, SW-620, 120 h) came out at 2.47 µM. Further, the inhibition at 1 µM in test [2] (0.5 h) was found to be 77%.
In the case of `CN(C)CCCOc1ccc(-c2ccc3nc4cccc(N5CCN(C)CC5)c4n3c2)cn1` [Example 7, N,N-dimethyl-3-((5-(9-(4-methylpiperazin-1-yl)benzo[4,5]imidazo[1,2-a]pyridin-2-yl)pyridin-2-yl)oxy)propan-1-amine], in test [1] (Homo sapiens, SW-620, 120 h), the IC50 is > 10 µM. For the same compound, testing at 1 µM in test [2] (0.5 h) gave an inhibition of 64%.
Turning to `CN(C)CCCOc1ccc(-c2ccc3nc4cccc(CN5CCN(C)CC5)c4n3c2)cn1` [Example 11], the IC50 in test [1] was 1.04 µM. The “inhibition(%) of ATM kinase” value in test [2] was determined as 63%.
Take `CN(C)CCCOc1ccc(-c2ccc3nc4cccc(OC5CCOCC5)c4n3c2)cn1` [Example 13, N,N-dimethyl-3-((5-(9-((tetrahydro-2H-pyran-4-yl)oxy)benzo[4,5]imidazo[1,2-a]pyridin-2-yl)pyridin-2-yl)oxy)propan-1-amine]: in test [1] (Homo sapiens, SW-620, 120 h), the 50% inhibitory concentration (IC50) was 1.57 µM. The compound further showed an inhibition at 1 µM in test [2] (0.5 h) of 86%.
The matching figures for `CN(C)CCCOc1ccc(-c2ccc3nc4cccc(NC5CCOCC5)c4n3c2)cn1` [Example 14, N,N-dimethyl-3-((5-(9-(tetrahydro-2H-pyran-4-ylamino)benzo[4,5]imidazo[1,2-a]pyridin-2-yl)pyridin-2-yl)oxy)propan-1-amine]: > 10 µM and 48%.
Regarding `CN(C)C1CCN(c2ccc(-c3ccc4nc5cccc(C6=CCOCC6)c5n4c3)cc2)CC1` [Example 39, N,N-dimethyl-1-(4-(9-(3,6-dihydro-2H-pyran-4-yl)benzo[4,5]imidazo[1,2-a]pyridin-2-yl)phenyl)piperidin-4-amine], the 50% inhibitory concentration (IC50) in test [1] (Homo sapiens, SW-620, 120 h) was found to be 1.51 µM. The inhibition at 0.01 µM in test [2] (0.5 h, detected concentration 0.01 μm) was found to be 17%. The compound further gave an inhibition at 0.1 µM in test [2] (0.5 h, detected concentration 0.1 μm) of 62%. Besides, testing at 1 µM in test [2] (0.5 h) gave an inhibition of 91%.
As for `CN(C)C1CCN(c2ccc(-c3ccc4nc5cccc(C6=CCOCC6)c5n4c3)cn2)CC1` [Example 40, N,N-dimethyl-1-(5-(9-(3,6-dihydro-2H-pyran-4-yl)benzo[4,5]imidazo[1,2-a]pyridin-2-yl)pyridin-2-yl)piperidin-4-amine], the IC50 in test [1] (Homo sapiens, SW-620, 120 h) worked out at 2.37 µM. Further, in test [2] (0.5 h), at 1 µM the inhibition was 96%.
Turning to `CN(C)C1CCN(c2ccc(-c3ccc4nc5cccc(N6CCOCC6)c5n4c3)cc2)CC1` [Example 41, N,N-dimethyl-1-(4-(9-morpholinobenzo[4,5]imidazo[1,2-a]pyridin-2-yl)phenyl)piperidin-4-amine], the concentration for half-maximal inhibition (IC50) in test [1] (Homo sapiens, SW-620, 120 h) amounted to 3.48 µM. In addition, in test [2] (0.5 h), at 1 µM the inhibition was 82%.
For the compound `C[C@@H]1CN(c2cccc3nc4ccc(-c5ccc(OCCCN(C)C)c(F)c5)cn4c23)C[C@H](C)N1C` [Example 50, N,N-dimethyl-3-(2-fluoro-4-(9-((3S,5R)-3,4,5-trimethylpiperazin-1-yl)benzo[4,5]imidazo[1,2-a]pyridin-2-yl)phenoxy)propan-1-amine], the half-inhibitory concentration (IC50) was > 1 µM in test [1] (Homo sapiens, SW-620, 120 h) and > 1 µM in test [3] (setting [4]).
As for `C[C@@H]1CN(c2cccc3nc4ccc(-c5ccc(OCCCN(C)C)c(C(F)(F)F)c5)cn4c23)C[C@H](C)N1C` [Example 53, N,N-dimethyl-3-(2-(trifluoromethyl)-4-(9-((3S,5R)-3,4,5-trimethylpiperazin-1-yl)benzo[4,5]imidazo[1,2-a]pyridin-2-yl)phenoxy)propan-1-amine], the IC50 in test [1] (Homo sapiens, SW-620, 120 h) came to 0.162 µM. In test [2] (0.5 h), this compound registered an inhibition at 1 µM of 100%.
With `C[C@@H]1CN(c2ncnc3nc4ccc(-c5ccc(N6CCC(N(C)C)CC6)cc5)nn4c23)C[C@H](C)N1C` [Example 71, N,N-dimethyl-1-(4-(4-((3 S,5R)-3,4,5-trimethylpiperazin-1-yl)pyridazino[6,1-f]purin-7-yl)phenyl)piperidin-4-amine], the 50% inhibitory concentration (IC50) in test [1] (Homo sapiens, SW-620, 120 h) was determined as 1.25 µM; in test [3] (setting [4]) it was 1.8 µM.
On to “N,N-dimethyl-1-(2-(trifluoromethyl)-4-(942S,6R)-2,6-dimethylmorpholino)benzo[4,5]imidazo[1,2-a]pyridin-2-yl)phenyl)piperidin-4-amine [Example 54]”, for which the values for the 50% inhibitory concentration (IC50) in test [1] and in test [3] were 0.193 µM and 0.22 µM, respectively.
For “N,N-dimethyl-3-(2-(trifluoromethyl)-4-(942S,6R)-2,6-dimethylmorpholino)benzo[4,5]imidazo[1,2-a]pyridin-2-yl)phenoxy)propan-1-amine [Example 55]”, in that order: 0.228 µM and 0.255 µM.

(Values after US11547703B2, “Substituted fused heteroaromatic tricyclic compounds as kinase inhibitors and the use thereof” (IMPACT THERAPEUTICS (SHANGHAI), INC, priority 2017, dated 2023).)
